Reference: ChEMBL document CHEMBL5252628, “Novel xanthone antibacterials: Semi-synthesis, biological evaluation, and the action mechanisms” (Bioorg Med Chem, 2023)
≈ marks a conversion by molar mass, not a printed value. Calls of active or inactive are those of the source. The calls are words filed in the database; no cut-off is given here.

Key:
Escherichia coli = experiment: Antibacterial activity against Escherichia coli ATCC 25922 assessed as inhibition of bacterial growth incubated for 18 to 24 hrs by broth microdilution assay; format: functional; conditions: time 18-24 hrs
Staphylococcus aureus [1] = experiment: Antibacterial activity against methicillin-resistant Staphylococcus aureus 2 assessed as inhibition of bacterial growth incubated for 18 to 24 hrs by broth microdilution assay; format: functional; conditions: time 18-24 hrs
Staphylococcus aureus [2] = experiment: Antibacterial activity against Staphylococcus aureus ATCC 33591 assessed as inhibition of bacterial growth incubated for 18 to 24 hrs by broth microdilution assay; format: functional; conditions: time 18-24 hrs
Staphylococcus aureus [3] = experiment: Antibacterial activity against Staphylococcus aureus SH-27 assessed as inhibition of bacterial growth incubated for 18 to 24 hrs by broth microdilution assay; format: functional; conditions: time 18-24 hrs
Staphylococcus aureus [4] = experiment: Antibacterial activity against Staphylococcus aureus ATCC 43300 assessed as inhibition of bacterial growth incubated for 18 to 24 hrs by broth microdilution assay; format: functional; conditions: time 18-24 hrs
Staphylococcus aureus [5] = experiment: Antibacterial activity against Staphylococcus aureus ATCC 29213 assessed as inhibition of bacterial growth incubated for 18 to 24 hrs by broth microdilution assay; format: functional; conditions: time 18-24 hrs
Salmonella enteritidis = experiment: Antibacterial activity against Salmonella enteritidis SM012 assessed as inhibition of bacterial growth incubated for 18 to 24 hrs by broth microdilution assay; format: functional, Salmonella enterica subsp. enterica serovar Enteritidis; conditions: Salmonella enterica, time 18-24 hrs
Staphylococcus aureus [6] = experiment: Antibacterial activity Staphylococcus aureus ATCC 29213 infected BALB/c mouse assessed as reduction in bacterial burden at 15 mg/kg,iv measured on day 1 and 3 after infection; format: functional, organism-based
L02 = experiment: Cytotoxicity against human L02 cells assessed as reduction in cell viability at 25 ug/ml incubated for 72 hrs by CCK-8 assay; format: toxicity, cell-based; conditions: l02, 72 h, dose 25 µg/ml
A549 = experiment: Cytotoxicity against human A549 cells assessed as reduction in cell viability at 25 ug/ml incubated for 72 hrs by CCK-8 assay; format: toxicity, cell-based; conditions: a549, 72 h, dose 25 µg/ml
[7] = Hemolytic activity in rabbit RBC assessed as hemolysis incubated for 1 hr by microtiter plate method; format: toxicity, cell-based, Oryctolagus cuniculus, Erythrocyte; conditions: red blood cells
Staphylococcus aureus [8] = experiment: Induction of drug resistance in Staphylococcus aureus ATCC 29213 assessed as fold increase in MIC measured after 20 passage; format: functional

Row | Compound | MIC (Escherichia coli) | MIC (Staphylococcus aureus [1]) | MIC (Staphylococcus aureus [2]) | MIC (Staphylococcus aureus [3]) | MIC (Staphylococcus aureus [4]) | MIC (Staphylococcus aureus [5]) | MIC (Salmonella enteritidis) | Activity (Staphylococcus aureus [6]) | Activity (L02) | Activity (A549) | HC50 at 1 h [7] | fold change (FC) (Staphylococcus aureus [8])
1 | COc1c(OC(C)=O)cc2oc3cc(OC(C)=O)c(CC=C(C)C)c(O)c3c(=O)c2c1CC=C(C)C | > 256 µg/mL | > 256 µg/mL | > 256 µg/mL | > 256 µg/mL | > 256 µg/mL | > 256 µg/mL | > 256 µg/mL | – | – | – | – | –
2 | COc1c(OCCCCCCO)cc2oc3cc(OCCCCCCO)c(CC=C(C)C)c(O)c3c(=O)c2c1CC=C(C)C | > 256 µg/mL | > 256 µg/mL | > 256 µg/mL | > 256 µg/mL | > 256 µg/mL | > 256 µg/mL | > 256 µg/mL | – | – | – | – | –
3 | COc1c(O)cc2oc3cc(OC(C)=O)c(CC=C(C)C)c(O)c3c(=O)c2c1CC=C(C)C | > 256 µg/mL | > 256 µg/mL | > 256 µg/mL | > 256 µg/mL | > 256 µg/mL | > 256 µg/mL | > 256 µg/mL | – | – | – | – | –
4 | C=CCOc1cc2oc3cc(OCC=C)c(OC)c(CC=C(C)C)c3c(=O)c2c(OC(C)=O)c1CC=C(C)C | > 256 µg/mL | > 256 µg/mL | > 256 µg/mL | > 256 µg/mL | > 256 µg/mL | > 256 µg/mL | > 256 µg/mL | – | – | – | – | –
5 | CCN1CCN(c2cc3c(cc2F)c(=O)c(C(=O)O)cn3C2CC2)CC1 [ENROFLOXACIN] | 0.0156 µg/mL (≈ 0.0434 µM) | 32 µg/mL (≈ 89 µM) | – | 128 µg/mL (≈ 356 µM) | – | 0.06 µg/mL (≈ 0.167 µM) | – | Active | – | – | – | –
6 | COc1c(OC(C)=O)cc2oc3cc(OC(C)=O)c(CC=C(C)C)c(OC(C)=O)c3c(=O)c2c1CC=C(C)C | > 256 µg/mL | > 256 µg/mL | > 256 µg/mL | 16 µg/mL (≈ 29.8 µM) | > 256 µg/mL | 128 µg/mL (≈ 239 µM) | > 256 µg/mL | – | Non-Toxic | Non-Toxic | > 500 µg/mL | –
7 | COc1c(OCc2ccccc2)cc2oc3cc(OCc4ccccc4)c(CC=C(C)C)c(OCc4ccccc4)c3c(=O)c2c1CC=C(C)C | > 256 µg/mL | > 256 µg/mL | > 256 µg/mL | > 256 µg/mL | > 256 µg/mL | > 256 µg/mL | > 256 µg/mL | – | – | – | – | –
8 | COc1c(O)cc2oc3cc(O)c(CC=C(C)C)c(OC(=O)C(C)C)c3c(=O)c2c1CC=C(C)C | > 256 µg/mL | 2 µg/mL (≈ 4.16 µM) | 1 µg/mL (≈ 2.08 µM) | 1 µg/mL (≈ 2.08 µM) | 1 µg/mL (≈ 2.08 µM) | 2 µg/mL (≈ 4.16 µM) | > 256 µg/mL | – | Non-Toxic | Non-Toxic | 263 µg/mL | –
9 | COc1c(OC(=O)C(C)C)cc2oc3cc(O)c(CC=C(C)C)c(O)c3c(=O)c2c1CC=C(C)C | > 256 µg/mL | > 256 µg/mL | > 256 µg/mL | > 256 µg/mL | > 256 µg/mL | > 256 µg/mL | > 256 µg/mL | – | – | – | – | –
10 | Cc1onc(-c2ccccc2)c1C(=O)N[C@@H]1C(=O)N2[C@@H]1SC(C)(C)[C@@H]2C(=O)O [OXACILLIN] | – | – | – | – | – | – | – | – | – | – | – | 64
11 | COc1c(OC(=O)C(C)C)cc2oc3cc(OC(=O)C(C)C)c(CC=C(C)C)c(OC(=O)C(C)C)c3c(=O)c2c1CC=C(C)C | > 256 µg/mL | > 256 µg/mL | > 256 µg/mL | > 256 µg/mL | > 256 µg/mL | > 256 µg/mL | > 256 µg/mL | – | – | – | – | –
